| SMILES | melting point [°C] |
| --- | --- |
| CC(C)(C)C1=CC(=O)C=CC1=O | 55 to 60 |
| Cc1cc(C)n(C(=N)NC(=S)Nc2cccnc2)n1 | 132 |
| C=C1CCC2C3CCc4cc(O)ccc4C3CCC12C (stereo unspecified) | 134 to 136 |
| CNc1nc(S(C)=O)nc(N)c1[N+](=O)[O-] (stereo unspecified) | 229 to 234 |
| CCN(CC)c1nc(NC(N)=NOC)nc(OC)n1 | 112 |
| Cc1ccc(O)c(NC(=O)c2cc(C)sc2Br)c1 | 173 to 175 |
| CNC(=O)Nc1snc(OC(C)C)c1C#N | 238 |
| CC(=O)COc1cc(-n2c(=O)cc(C(F)(F)F)n(C)c2=O)c(F)cc1Cl | 164 to 166 |
| CCc1cc2[nH]c(=O)cc(Cl)c2c(CC)n1 | 172 to 174 |
| CCCN(CCC)Cc1nnc(-c2ncn3c2CN(C)C(=O)c2c(Cl)cccc2-3)o1 | 188 to 195 |
| CN(C(=O)OC(C)(C)C)C1CCN(c2nc(N3CCOCC3)nc(-n3c(C(F)F)nc4c(O)cccc43)n2)CC1 | 220 to 222 |
| N#CSCOc1cc(Cl)c(Cl)cc1Cl | 103 to 105 |
| O=C(O)CCCCC[C@@H]1C[C@@H](NS(=O)(=O)c2ccc(Cl)cc2)CN1S(=O)(=O)c1ccc(Cl)cc1 | 124 to 125 |
| Cc1c(C)c2c(c(C)c1N)C(c1ccc(C3OCCO3)cc1)CO2 (stereo unspecified) | 125 to 136 |
| CNC(=NCCSSCc1nc[nH]c1C)NC#N | 137 to 142 |
| CC(C)CC1(C(CCNC(=O)c2ccc(F)c(F)c2)C(=O)OC(C)(C)C)CCN(CCc2ccccc2)C1=O (stereo unspecified) | 147 to 148 |
| CCOC(=S)Nc1cccc(Cl)c1 | 78 to 79 |
| COc1cc2c(cc1OC)CC(=O)N(CCCN(C)C[C@H]1Cc3cc(OC)c(OC)cc31)CC2 | 98 to 100 |
| COC(=O)c1cc2c(c(OC)c1Br)OCO2 | 85.5 to 86 |
| CCCc1nn(-c2ccc(C(F)(F)F)cn2)cc1CCCOc1c(CC(=O)O)cccc1OC | 122 to 123 |
| Cn1cc(-c2cccc(N3Cc4cc(C(C)(C)C)ccc4C3=O)c2CO)cc(Nc2ccn(C3CC3)n2)c1=O | 173 to 175 |
| CCCS(=O)(=O)Nc1c(C)c(C)c2c(c1C)C(c1ccc(C(C)C)cc1)CO2 (stereo unspecified) | 133 to 134 |
| Cc1ccc2cc(CC(=O)O)c(=O)[nH]c2n1 | > 250 |
| COc1c(N2CCC(n3cncn3)C2)c(F)cc2c(=O)c(C(=O)O)cn(C3CC3)c12 (stereo unspecified) | 221 to 222 |
| CNc1c(CCO)cc(N)c([N+](=O)[O-])c1CCO | 99 |
| CCc1nc2c(C)cc(C)nc2n1Cc1ccc(C(Cc2nnn[nH]2)c2ccc(OC)cc2)cc1 (stereo unspecified) | 96 to 99 |
| CC(C)(C)OC(=O)Cc1ccc(O)cc1 | 95 to 96 |
| CCN(CC)CCNC(=O)c1cc(Cl)c(N)cc1OC1OCCO1 | 93 to 95 |
| CCC=C1Cc2c3c(c(C)c(C)c2C1=O)OC(C(=O)O)C3 (stereo unspecified) | 229 |

Further lines, results first:

| melting point [°C] | SMILES |
| --- | --- |
| 226 to 228 | CCOC(=O)c1cnc(Nc2cccc([N+](=O)[O-])c2)[nH]c1=O |
| 114 to 117 | COc1ccccc1-c1ccc(S(=O)(=O)Nc2onc(C)c2Br)s1 |
| 121 | O=C(O)Cc1cccc(C(=O)c2cc3ccsc3s2)c1 |
| 171 to 173 | Brc1ccc2c(c1)sc1cc(Br)ccc12 |
| 77 to 79 | O=S(=O)(c1ccccc1)C(F)(F)C(O)c1ccccc1 (stereo unspecified) |
| 53 to 56 | CC(=O)OC(c1ccccc1F)c1scnc1C (stereo unspecified) |
| 200 to 202 | CC(C(=O)O)c1cccc2c(-c3ccc(Cl)cc3)nccc12 (stereo unspecified) |
| 142 to 143 | FC(F)(F)c1cccc2c(Cl)c3ccccc3c(Cl)c12 |
| 130 | O=C(Nc1n[nH]c(=S)s1)N[C@@H](Cc1ccccc1)C(=O)O |
| 112 to 113 | NCCCc1cn(C(c2ccccc2)(c2ccccc2)c2ccccc2)cn1 |
| 193 to 194 | N#Cc1cn(-c2ccc([N+](=O)[O-])c(N)c2)cc1-c1ccccc1 |
| 151 | NC(=O)N(O)Cc1cccc(C(O)C#Cc2ccsc2)c1 (stereo unspecified) |
| 136 to 139 | O=[N+]([O-])c1ccc(/C=C/c2ccccn2)cc1 |
| 160 | O=S1(=O)c2cccc3cccc(c23)N1CCN1CCC(=Cc2cc3cc(F)ccc3[nH]2)CC1 |
| 154 to 159 | CS(=O)(=O)O[C@H]1CC[C@H](Nc2ccnc3cc(Cl)ccc23)CC1 |
| 218 | CC(C)(C(=O)O)c1ccc(CCN2CCC(c3nc4ccccc4n3CCO)CC2)cc1 |
| > 240 | O=C(Nc1c(C(O)(C(F)(F)F)C(F)(F)F)ccc2ccccc12)c1cnc2ccccc2n1 |
| 236 to 238 | OC(c1cc2ccccc2c2ccccc12)c1cc2ccccc2c2ccccc12 |
| 194 to 195 | Cc1oc(-c2ccccc2)nc1COc1ccc(CN(O)C(=O)NO)cc1 |
| 100 to 103 | CN(C(=S)c1ccccn1)c1cccc(F)c1 |
| 103 to 105 | CCOC(=O)c1cn(-c2cccc(Oc3ccc(Br)cn3)c2)cn1 |
| 85 | CCC(C)N(C)C(=O)c1cc2ccccc2c(-c2ccccc2F)n1 (stereo unspecified) |
